Laboratory results reported in patent US10167262B2, “Herbicidal substituted 3-arylpyrazoles” (FMC CORPORATION, priority 2014, dated 2019).

Key:
Type in all cases: in vivo
[1] = tested on: waterhemp_RES2, (ALS & HPPD resistant common waterhemp, Amaranthus rudis); assay: Test E postemergence greenhouse test, plant response rating 0-100; conditions: scale 0 to 100
Experimental: At the same time, plants from these crop and weed species and also waterhemp_RES1, (ALS & Triazine resistant common waterhemp, Amaranthus rudis), and waterhemp_RES2, (ALS & HPPD resistant common waterhemp, Amaranthus rudis) were planted in pots containing Redi-Earth® planting medium (Scotts Company, 14111 Scottslawn Road, Marysville, Ohio 43041) comprising spaghnum peat moss, vermiculite, wetting agent and starter nutrients were treated with postemergence applications of test chemicals formulated in the same manner. Plants ranged in height from 2 to 18 cm for postemergence treatments (1- to 4-leaf stage).
Treated plants and controls were maintained in a greenhouse for 14 to 21 days, after which time all species were compared to controls and visually evaluated. Plant response ratings, summarized in Table E, are based on a scale of 0 to 100 where 0 is no effect and 100 is complete control. A dash (-) response means no test result.

[2] = tested on: green foxtail (Setaria viridis); assay: Test C postemergence greenhouse test, plant response rating 0-100
Method in brief: (§1)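 Visual rating vs. controls, 0 (no effect) to 100 (complete control), 13–15 d after postemergence treatment. Potted plants, 1- to 4-leaf stage (2–18 cm), greenhouse-held.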

[3] = tested on: windgrass (Apera spica-venti); assay: as above
Method in brief: as §1

[4] = tested on: cocklebur (common cocklebur, Xanthium strumarium); assay: as above
Method in brief: as §1

[5] = tested on: deadnettle (henbit deadnettle, Lamium amplexicaule); assay: as above
Method in brief: as §1

[6] = tested on: downy bromegrass (Bromus tectorum); assay: as above
Method in brief: as §1

[7] = tested on: canarygrass (Phalaris minor); assay: as above
Method in brief: as §1

[8] = tested on: woolly cupgrass (Eriochloa villosa); assay: as above
Method in brief: as §1

[9] = tested on: winter barley (Hordeum vulgare); assay: as above
Method in brief: as §1

[10] = tested on: surinam grass (Brachiaria decumbens); assay: as above
Method in brief: as §1

[11] = tested on: goosegrass (Eleusine indica); assay: as above
Method in brief: as §1

[12] = tested on: bermudagrass (Cynodon dactylon); assay: as above
Method in brief: as §1

CCCn1cc(C(=O)c2ccccc2)c(-c2cc(Cl)cc(Cl)c2)n1 [Compound 61, [3-(3,5-dichlorophenyl)-1-propyl-1H-pyrazol-4-yl]phenylmethanone]
Plant response rating, Waterhemp_RES2 ([1]; 31 g ai/ha): 20 | Plant response rating, Waterhemp_RES2 ([1]; 125 g ai/ha): 40 | Plant response rating, Waterhemp_RES2 ([1]; 500 g ai/ha): 95 | Plant response rating (0 to 100), Foxtail, Green ([2]; 31 g ai/ha): 0 | Plant response rating (0 to 100), Foxtail, Green ([2]; 62 g ai/ha): 0 | Plant response rating (0 to 100), Foxtail, Green ([2]; 125 g ai/ha): 0 | Plant response rating, Foxtail, Green ([2]; 250 g ai/ha, scale 0 to 100): 0 | Plant response rating (0 to 100), Windgrass ([3]; 62 g ai/ha): 0 | Plant response rating (0 to 100), Windgrass ([3]; 125 g ai/ha): 0 | Plant response rating, Windgrass ([3]; 250 g ai/ha, scale 0 to 100): 0 | Plant response rating (0 to 100), Cocklebur ([4]; 31 g ai/ha): 10 | Plant response rating (0 to 100), Cocklebur ([4]; 62 g ai/ha): 10 | Plant response rating (0 to 100), Cocklebur ([4]; 125 g ai/ha): 20 | Plant response rating, Cocklebur ([4]; 250 g ai/ha, scale 0 to 100): 35 | Plant response rating (0 to 100), Deadnettle ([5]; 31 g ai/ha): 0 | Plant response rating (0 to 100), Deadnettle ([5]; 62 g ai/ha): 0 | Plant response rating (0 to 100), Deadnettle ([5]; 125 g ai/ha): 0 | Plant response rating, Deadnettle ([5]; 250 g ai/ha, scale 0 to 100): 0 | Plant response rating (0 to 100), Bromegrass, Downy ([6]; 31 g ai/ha): 0 | Plant response rating (0 to 100), Bromegrass, Downy ([6]; 62 g ai/ha): 0 | Plant response rating (0 to 100), Bromegrass, Downy ([6]; 125 g ai/ha): 0 | Plant response rating, Bromegrass, Downy ([6]; 250 g ai/ha, scale 0 to 100): 0 | Plant response rating (0 to 100), Canarygrass ([7]; 31 g ai/ha): 0 | Plant response rating (0 to 100), Canarygrass ([7]; 62 g ai/ha): 0 | Plant response rating (0 to 100), Canarygrass ([7]; 125 g ai/ha): 0 | Plant response rating, Canarygrass ([7]; 250 g ai/ha, scale 0 to 100): 0 | Plant response rating (0 to 100), Cupgrass, Woolly ([8]; 31 g ai/ha): 5 | Plant response rating (0 to 100), Cupgrass, Woolly ([8]; 62 g ai/ha): 10 | Plant response rating (0 to 100), Cupgrass, Woolly ([8]; 125 g ai/ha): 10 | Plant response rating, Cupgrass, Woolly ([8]; 250 g ai/ha, scale 0 to 100): 15 | Plant response rating (0 to 100), Barley ([9]; 31 g ai/ha): 0 | Plant response rating (0 to 100), Barley ([9]; 62 g ai/ha): 0 | Plant response rating (0 to 100), Barley ([9]; 125 g ai/ha): 0 | Plant response rating, Barley ([9]; 250 g ai/ha, scale 0 to 100): 0 | Plant response rating (0 to 100), Surinam Grass ([10]; 62 g ai/ha): 0 | Plant response rating (0 to 100), Surinam Grass ([10]; 125 g ai/ha): 0 | Plant response rating, Surinam Grass ([10]; 250 g ai/ha, scale 0 to 100): 0 | Plant response rating (0 to 100), Goosegrass ([11]; 31 g ai/ha): 0 | Plant response rating (0 to 100), Goosegrass ([11]; 62 g ai/ha): 0 | Plant response rating (0 to 100), Goosegrass ([11]; 125 g ai/ha): 0 | Plant response rating, Goosegrass ([11]; 250 g ai/ha, scale 0 to 100): 5 | Plant response rating (0 to 100), Bermudagrass ([12]; 31 g ai/ha): 0 | Plant response rating (0 to 100), Bermudagrass ([12]; 62 g ai/ha): 5 | Plant response rating (0 to 100), Bermudagrass ([12]; 125 g ai/ha): 5 | Plant response rating, Bermudagrass ([12]; 250 g ai/ha, scale 0 to 100): 5
